For test [1], the target named is Carbonic anhydrase 1 (Homo sapiens) (UniProt P00915). Put plainly: Maximal activatory effect against human carbonic anhydrase I (hCA I) at a concentration of 1 mM.
The target is the same in test [2]. Put plainly: Maximal activatory effect against human carbonic anhydrase I (hCA I) at a concentration of 1 uM.
In test [3] the target is Carbonic anhydrase 2 (Homo sapiens) (UniProt P00918). Put plainly: Maximal activatory effect against human carbonic anhydrase II (hCA II).
Test [4] addresses Carbonic anhydrase 1 (Homo sapiens) (UniProt P00915). Put plainly: Maximal activatory effect against human carbonic anhydrase I (hCA I).

Carbonic anhydrase 1 (Homo sapiens), sequence (P00915 2-261 limits assumed): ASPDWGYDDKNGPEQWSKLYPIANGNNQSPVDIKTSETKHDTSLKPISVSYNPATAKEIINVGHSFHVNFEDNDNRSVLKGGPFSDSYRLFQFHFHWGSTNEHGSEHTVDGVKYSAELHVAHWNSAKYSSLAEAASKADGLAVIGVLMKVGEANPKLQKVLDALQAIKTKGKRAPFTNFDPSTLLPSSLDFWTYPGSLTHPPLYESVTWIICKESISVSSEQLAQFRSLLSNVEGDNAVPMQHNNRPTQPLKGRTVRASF

`CNCCC(Oc1ccc(C(F)(F)F)cc1)c1ccccc1` (stereo not given): the values for the Activity in test [1] and in test [2] were 210% and 175%, respectively.

Consider `N[C@@H](Cc1ccccc1)C(=O)O`, for which the Activity in test [3] worked out at 210%; in test [4], 160%.

Consider `CN[C@H]1CC[C@@H](c2ccc(Cl)c(Cl)c2)c2ccccc21`, for which the results for the Activity in test [2] and in test [4] were 145% and 165%, respectively.

Turning to `CN(C)CCCC1(c2ccc(F)cc2)OCc2cc(C#N)ccc21` (stereo not given), the Activity in test [2] turned out to be 134%; in test [4] it was 148%.

In the case of `NCCc1c[nH]cn1`, the figures for the Activity in test [1] and in test [2] were 185% and 165%, respectively.

Source of the values: ChEMBL document CHEMBL1136165, “Carbonic anhydrase activators. The selective serotonin reuptake inhibitors fluoxetine, sertraline and citalopram are strong activators of isozymes I and II” (Bioorg Med Chem Lett, 2003).
